Where two headings read alike, the source gives them in different places.
Columns and labels:
Assay type in all cases: cell-based
androgen receptor = androgen receptor (Homo sapiens (Human), UniProt P10275, T878A); assay: Activity of reducing expression level of androgen receptor (Western blotting of LNCaP cell lysate); conditions: 48 hours
Procedure, shortened: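 LNCaP prostate cancer cells (AR T878A) in phenol red-free RPMI1640 with 5% FBS treated with compound at final 10000 nmol/L for 48 h. Cell lysates analysed by Western blot with anti-AR antibody; band quantified by chemiluminescence.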

[1] = system: AR positive human prostate cancer cells VCaP; assay: Agonist activity for AR (cell proliferation rate of VCaP cells); conditions: 72 hours, 2 to 10000 nmol/L, more than 10% at any concentration = agonist activity for AR
Procedure, shortened: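 VCaP cells seeded at 1.5×10^4/well in phenol-red-free RPMI1640 with 5% DCC-FBS, then exposed 72 h to compound at 2–10000 nmol/L (9 concentrations). Viable cells counted by CellTiter-Glo; proliferation rate (%) relative to medium-only control, agonist activity called when >10% at any concentration.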

human androgen receptor = human androgen receptor (Homo sapiens (Human), UniProt P10275); assay: Antagonist activity for AR (pMMTV-luc reporter transcription activity in transfected COS-7 cells, DHT 1 nmol/L); conditions: 50% transcription activity inhibition concentration; COS-7 cells with pMMTV-luc and pEX-hAR, DHT 1 nmol/L, 24 hours
Procedure, shortened: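 COS-7 cells co-transfected with pMMTV-luc reporter and CMV-driven human AR expression vector, cultured overnight in phenol red-free RPMI1640 with 10% charcoal-treated FBS. Antagonism measured against 1 nmol/L DHT by luciferase transcription activity.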

[2] = system: Human prostate cancer cells LNCaP; assay: Androgen-dependent inhibitory activity on proliferation of prostate cancer cells; conditions: read-out: GI50 value
Protocol: Human prostate cancer cells LNCaP (Non-Patent Literature 5) having […] androgen receptor gene were seeded in a clear bottom 96 well microplate (BD) at 4.0×10^3/well with phenol red free RPMI1640 containing 5% DCC-FBS (hereinbelow, the medium is referred to as an evaluation medium), and then cultured overnight. The culture was added with the evaluation medium containing DHT (final concentration of DHT: 10 nmol/L) or the evaluation medium containing the compound of Examples or the compound of Comparative Examples (final concentration of the compound of Examples or the compound of Comparative Examples: 10, 30, 100, 300, 1000, 3000, 10000, or 30000 nmol/L), followed by culture for 72 hours. Then, the number of viable cells was counted. The number of viable cells was measured by using Cell Counting Kit-8 (DOJINDO LABORATORIES).

[3] = 50% proliferation inhibition concentration, DHT 10 nmol/L, 72 hours

Chain of human androgen receptor (P10275 whole entry): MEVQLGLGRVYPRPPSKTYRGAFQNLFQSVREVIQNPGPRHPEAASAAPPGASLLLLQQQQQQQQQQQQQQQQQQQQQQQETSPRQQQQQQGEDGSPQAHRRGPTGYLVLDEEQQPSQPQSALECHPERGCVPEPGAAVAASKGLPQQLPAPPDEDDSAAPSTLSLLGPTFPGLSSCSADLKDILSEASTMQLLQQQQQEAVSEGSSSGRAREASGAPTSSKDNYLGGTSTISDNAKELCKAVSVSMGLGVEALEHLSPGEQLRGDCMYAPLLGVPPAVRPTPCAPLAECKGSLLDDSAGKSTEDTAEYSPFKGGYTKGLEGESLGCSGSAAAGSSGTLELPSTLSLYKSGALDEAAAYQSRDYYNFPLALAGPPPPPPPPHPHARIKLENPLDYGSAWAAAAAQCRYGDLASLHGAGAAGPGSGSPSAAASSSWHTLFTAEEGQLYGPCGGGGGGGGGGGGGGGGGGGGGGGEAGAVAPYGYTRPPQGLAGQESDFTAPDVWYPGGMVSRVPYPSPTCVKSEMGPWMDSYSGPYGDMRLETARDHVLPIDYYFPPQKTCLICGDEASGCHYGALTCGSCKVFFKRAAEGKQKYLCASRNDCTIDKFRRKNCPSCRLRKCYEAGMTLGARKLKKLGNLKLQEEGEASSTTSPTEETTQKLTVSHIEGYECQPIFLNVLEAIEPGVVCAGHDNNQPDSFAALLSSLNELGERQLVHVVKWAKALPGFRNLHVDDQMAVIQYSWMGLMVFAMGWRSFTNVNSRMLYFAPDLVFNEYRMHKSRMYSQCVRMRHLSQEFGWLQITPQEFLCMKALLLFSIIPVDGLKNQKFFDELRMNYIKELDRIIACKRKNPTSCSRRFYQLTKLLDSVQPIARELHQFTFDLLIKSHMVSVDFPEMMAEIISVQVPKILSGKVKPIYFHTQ
Chain of androgen receptor (P10275 whole entry T878A): as the sequence (P10275 whole entry) above, with T878A counted along it

Structure (SMILES) | 10 μM AR expression reducing activity (androgen receptor) | Cell proliferation rate (%) [1] [%] | IC50 (human androgen receptor) [nM] | GI50 ([2]; 72 h) [nM] | GI50 [2, 3] [nM]
CC(C)(O)C1CCN(C(=O)c2cnc(Nc3ncnc4c3CCN(c3ccc(C#N)c(C(F)(F)F)c3)C4)o2)CC1 [Example 42, 4-(4-((5-(4-(2-hydroxypropan-2-yl)piperidin-1-carbonyl)oxazol-2-yl)amino)-5,6-dihydropyrido[3,4-d]pyrimidin-7(8H)-yl)-2-(trifluoromethyl)benzonitrile] | reduced (When the AR expression reducing activity is 50% or more, it is described as “reduced”) | −17.2 | 340 | 1100 | 
CC(C)Oc1ccc(Nc2ncnc3c2CCN(c2ccc(C#N)c(C(F)(F)F)c2)C3)cn1 [Example 13, 4-(4-((6-isopropoxypyridin-3-yl)amino)-5,6-dihydropyrido[3,4-d]pyrimidin-7(8H)-yl)-2-(trifluoromethyl)benzonitrile] | reduced (When the AR expression reducing activity is 50% or more, it is described as “reduced”) | 2.8 | 110 |  | 600
CC(C)(O)CNC(=O)c1cnc(Nc2ncnc3c2CCN(c2ccc(C#N)c(C(F)(F)F)c2)C3)nc1 [Example 34, 2-((7-(4-cyano-3-(trifluoromethyl)phenyl)-5,6,7,8-tetrahydropyrido[3,4-d]pyrimidin-4-yl)amino)-N-(2-hydroxy-2-methylpropyl)pyrimidine-5-carboxamide] | reduced (When the AR expression reducing activity is 50% or more, it is described as “reduced”) | 6.4 | 700 |  | 3800
CS(=O)(=O)N1CCN(CCCOc2ccc(Nc3ncnc4c3CCN(c3ccc(C#N)c(C(F)(F)F)c3)C4)cc2)CC1 [Example 18, 4-(4-((4-(3-(4-(methylsulfonyl)piperazin-1-yl)propoxy)phenyl)amino)-5,6-dihydropyrido[3,4-d]pyrimidin-7(8H)-yl)-2-(trifluoromethyl)benzonitrile] | reduced (When the AR expression reducing activity is 50% or more, it is described as “reduced”) | −4.6 | 360 |  | 1900
CC(C)Oc1ccc(Nc2ncnc3c2CCN(c2ccc(C#N)c(C(F)(F)F)c2)C3)cc1 [Example 2, 4-(4-((4-isopropoxyphenyl)amino)-5,6-dihydropyrido[3,4-d]pyrimidin-7(8H)-yl)-2-(trifluoromethyl)benzonitrile] | reduced (When the AR expression reducing activity is 50% or more, it is described as “reduced”) | 3.8 | 370 |  | 1000
CC(C)(COc1ccc(Nc2ncnc3c2CCN(c2ccc(C#N)c(C(F)(F)F)c2)C3)cn1)n1cnnn1 [Example 16, 4-(4-((6-(2-methyl-2-(1H-tetrazol-1-yl)propoxy)pyridin-3-yl)amino)-5,6-dihydropyrido[3,4-d]pyrimidin-7(8H)-yl)-2-(trifluoromethyl)benzonitrile] | reduced (When the AR expression reducing activity is 50% or more, it is described as “reduced”) | −1.5 | 210 |  | 700
CC(C)(COc1ccc(Nc2ncnc3c2CCN(c2ccc(C#N)c(C(F)(F)F)c2)C3)nc1)n1cnnn1 [Example 17, 4-(4-((5-(2-methyl-2-(1H-tetrazol-1-yl)propoxy)pyridin-2-yl)amino)-5,6-dihydropyrido[3,4-d]pyrimidin-7(8H)-yl)-2-(trifluoromethyl)benzonitrile] | reduced (When the AR expression reducing activity is 50% or more, it is described as “reduced”) | 0.6 | 170 |  | 700
N#Cc1ccc(N2CCc3c(ncnc3Nc3ncc(S(=O)(=O)N4CCCOCC4)s3)C2)cc1C(F)(F)F [Example 20, 4-(4-((5-((1,4-oxazepan-4-yl)sulfonyl)thiazol-2-yl)amino)-5,6-dihydropyrido[3,4-d]pyrimidin-7 (8H)-yl)-2-(trifluoromethyl)benzonitrile] | reduced (When the AR expression reducing activity is 50% or more, it is described as “reduced”) | 0.0 | 100 |  | 2500
CC(C)(O)c1ccc(Nc2ncnc3c2CCN(c2ccc(C#N)c(C(F)(F)F)c2)C3)nn1 [Example 10, 4-(4-((6-(2-hydroxypropan-2-yl)pyridazin-3-yl)amino)-5,6-dihydropyrido[3,4-d]pyrimidin-7 (8H)-yl)-2-(trifluoromethyl)benzonitrile] | reduced (When the AR expression reducing activity is 50% or more, it is described as “reduced”) | 2.8 | 90 |  | 800
CC(C)(O)CNC(=O)c1ccc(Nc2ncnc3c2CCN(c2ccc(C#N)c(C(F)(F)F)c2)C3)nn1 [Example 32, 6-((7-(4-cyano-3-(trifluoromethyl)phenyl)-5,6,7,8-tetrahydropyrido[3,4-d]pyrimidin-4-yl)amino)-N-(2-hydroxy-2-methylpropyl)pyridazine-3-carboxamide] | reduced (When the AR expression reducing activity is 50% or more, it is described as “reduced”) | −2.2 | 60 |  | 3100
N#Cc1ccc(N2CCc3c(ncnc3Nc3ccc(C(=O)NCc4nc(C(F)(F)F)cs4)cn3)C2)cc1C(F)(F)F [Example 36, 6-((7-(4-cyano-3-(trifluoromethyl)phenyl)-5,6,7,8-tetrahydropyrido[3,4-d]pyrimidin-4-yl)amino)-N-((4-(trifluoromethyl)thiazol-2-yl)methyl)nicotinamide] | reduced (When the AR expression reducing activity is 50% or more, it is described as “reduced”) | −1.9 | 170 |  | 300
C[C@@H](NC(=O)c1ccc(Nc2ncnc3c2CCN(c2ccc(C#N)c(C(F)(F)F)c2)C3)nc1)c1nnco1 [Example 38, (R)—N-(1-(1,3,4-oxadiazol-2-yl)ethyl)-6-((7-(4-cyano-3-(trifluoromethyl)phenyl)-5,6,7,8-tetrahydropyrido[3,4-d]pyrimidin-4-yl)amino)nicotinamide] | reduced (When the AR expression reducing activity is 50% or more, it is described as “reduced”) | −2.7 | 560 |  | 1100
CC(C)(O)c1ccc(Nc2ncnc3c2CCN(c2ccc(C#N)c(C(F)(F)F)c2)C3)nc1F [Example 5, 4-(4-((6-fluoro-5-(2-hydroxypropan-2-yl)pyridin-2-yl)amino)-5,6-dihydropyrido[3,4-d]pyrimidin-7 (8H)-yl)-2-(trifluoromethyl)benzonitrile] | reduced (When the AR expression reducing activity is 50% or more, it is described as “reduced”) | −5.5 | 190 |  | 600

From patent US10300067B2, “Tetrahydropyridopyrimidine compound or salt thereof” (TAIHO PHARMACEUTICAL CO., LTD., priority 2014, dated 2019)
